Measurements published in a melting point compilation (Tetko et al.; mined from patent text by program, amines drawn as free bases though some values may be those of a salt).

Row | Compound | melting point [°C]
1 | Nc1cc(C#Cc2ccc3c(C(=O)Nc4cccc(C(F)(F)F)c4)cccc3c2)ncn1 | 217 to 220
2 | CCCn1c(=O)c2c(NC)n[nH]c2n(CCOCc2ccccc2)c1=O | 224 to 226
3 | O=[N+]([O-])c1cc(Cl)c(Oc2ccc(Cl)c3ccccc23)c(Cl)c1 | 145 to 147
4 | CC(CCCC(C)C1CCC2C3CC=C4CC(O)CCC4(C)C3CCC12C)CO[Si](C)(C)C(C)(C)C (stereo unspecified) | 93.5
5 | Cc1cc(C=C2SC(=S)NC2=O)cc2c1OCC(=O)N2Cc1ccc(CN2CCCCC2)cc1 | 277 to 278
6 | O=C1CCCCC1n1nc(-c2c(-c3ccccc3)nn3ccccc23)ccc1=O (stereo unspecified) | 166 to 168
7 | COc1ccc(CC#N)c(C)c1OC | 60 to 63
8 | O=C1N/C(=C\C2CC2)C(O)=C1c1ccccc1 | 167 to 170
9 | O=C(O)C1SC(c2ccccc2)=NN1C(=O)CCS (stereo unspecified) | 145 to 146
10 | CC(O)(c1ccccc1)C1CCNCC1 (stereo unspecified) | 172 to 175
11 | OC1c2ccccc2-c2nc(-c3ccc(Cl)cc3Cl)ncc21 (stereo unspecified) | 188
12 | O=[N+]([O-])c1ccc(S(=O)(=O)c2cc(Br)nc(Br)c2)cc1 | 204 to 206
13 | CCn1cc(C(=O)NCc2ccc(Cl)cc2)c(=O)c2cc(C#CCOC(=O)c3cccc(CN4CCOCC4)c3)sc21 | 147 to 150
14 | CS(=O)(=O)c1ccc(-c2c(Br)c3cccccc-3c2-c2ccccc2)cc1 | 172 to 173
15 | COc1cc(Cc2cnc(N)nc2N)cc(OC)c1 | 164 to 168
16 | CCN1CCN(c2ccc(Nc3cc(-c4cccc(-n5ncc6cc(C(C)(C)C)cc(F)c6c5=O)c4CO)nn(C)c3=O)nc2)CC1 | 245 to 247
17 | Cc1cc(Cn2nc(C(F)(F)F)cc2C(F)(F)F)ccc1N1C(=O)c2cccc(F)c2C1=O | 158 to 159
18 | CN1CC(c2ccccc2)c2ccccc2C(c2ccccc2)C1(C)C (stereo unspecified) | 137 to 138
19 | NC1=NS(=O)N=C1NCCCN(Cc1cccs1)c1ccccn1 (stereo unspecified) | 169 to 171
20 | CCCCCCCCCCCCC1(C(C(=O)Nc2c(C(C)C)cccc2C(C)C)c2ccccc2)C=CNO1 (stereo unspecified) | 107 to 108
21 | NC(=O)C(O)c1cc(F)cc2cccnc12 (stereo unspecified) | 169 to 171
22 | O=Cc1cc(-c2ccc3nnn(Cc4ccc5ncccc5c4)c3n2)cs1 | 195 to 197
23 | CC1(C(F)(F)F)CC(=O)C(C(=O)c2ccc(C(F)(F)F)cc2[N+](=O)[O-])C(=O)N1 (stereo unspecified) | 164 to 166
24 | CCOC(=O)C(Br)=C(Br)c1ccc(Cl)cc1 | 67 to 68
25 | O=C1C(=CNCCO)Cc2cc(Cl)ccc21 | 164 to 166
26 | COC1=C(c2cccc(C(F)(F)F)c2)C(=O)OC1 | 126

Row | Compound | melting point [°C]
27 | O=S(=O)(Nc1cccnc1Nc1ccccc1)c1ccc(O)cc1 | 226 to 228
28 | Cc1cc(-c2[nH]nc3c2C(=O)c2c(NC(=O)NN4CCN(C)CC4)cccc2-3)c(C)s1 | 250
29 | CC(=O)OC1CSC(Oc2cnccc2-c2ccoc2)C(OC(C)=O)C1OC(C)=O (stereo unspecified) | 167
30 | CC(C)(C)OC(=O)N[C@@H](Cc1ccccc1)[C@H](C#N)OC(=O)c1ccc(-c2ccccn2)cc1 | 140 to 141
31 | CC(=O)NC1(C#N)CC(C)(C)NC(C)(C)C1 | 153 to 160
32 | O=C(Cn1c(-c2cccc(Br)c2)nc2cccnc21)N1CCCCC1 | 157 to 158
33 | CCc1nc(-c2cccc(C)c2)c(-c2ccnc(NCC3CCCCC3)c2)s1 | 74 to 75
34 | CC(C)CCOCC(O)C(CC(C)C)NC(=O)C(Cc1c[nH]cn1)NC(=O)C(CC(=O)NCCc1ccccc1)Cc1cccc2ccccc12 (mixture of isomers) | 73 to 76
35 | Nc1ccsc1-c1nc(C2CC2)no1 | 51 to 54
36 | CCCc1sc(-c2nccs2)c2c1C(=O)CC(C)(C)C2 | 69 to 72
37 | CC1=C(Cl)C(=O)c2ccccc2C1=O | 152 to 154
38 | CCCC(C)Oc1cc(-n2c(=O)cc(C(F)(F)F)n(C)c2=O)c(F)cc1Cl (stereo unspecified) | 94 to 97
39 | Cc1ccc(-c2nnc[nH]2)cc1-c1cc2cnc(NC3CCOCC3)nc2n(C)c1=O | 215 to 216
40 | O=C(CCCCN1CCCCC1)c1ccc2oc3ccc(C(=O)CCCCN4CCCCC4)cc3c(=O)c2c1 | 109 to 110
41 | CNC(=O)c1cccc(NC(=O)Cc2ccccc2Cl)c1 | 211 to 212
42 | CCCCCCCCCCCCCCCCSCC(CN)NC(=O)OC(C)(C)C (stereo unspecified) | 46 to 47
43 | COCn1cnc(N2CCc3ccccc3CC2)c(C#N)c1=O | 119 to 124
44 | CS(=O)(=O)Nc1cc(C(c2cc(C#N)ccc2F)S(=O)(=O)c2ccc(Cl)cc2)c(Cl)cn1 (stereo unspecified) | 118 to 120
45 | CC1(C)CC(=NO)c2cc(OCc3ccccc3)ccc2O1 | 105 to 108
46 | COc1ccc(Cn2c(-c3cc(OC)c(OC)c(OC)c3)nc3ccccc32)cc1 | 110
47 | COc1cc(-c2nc3ccc(O)cc3n2Cc2ccccc2Br)cc(OC)c1OC | 208
48 | Clc1ccc2c(c1)CCc1cccnc1C2=C1CCNCC1 | 154 to 155
49 | CCC(CC)n1c(=O)ccc2cnc(Nc3ccc(N4CCN(C)CC4)cc3)nc21 | 155 to 157
50 | CON=C(C#N)c1ccccc1COc1ccccc1C | 53 to 54
51 | Fc1cc(F)c(-c2c(Cl)nc(-n3ccnc3)nc2Cl)c(F)c1 | 72 to 74
52 | COc1ccc(CN(CCN(C)CCN=C(NC#N)NCCSCc2csc(NC(=N)N)n2)c2ccccn2)cc1 | 56 to 58

Row | Compound | melting point [°C]
53 | CC1(C)CC(SCc2c(Cl)nn(C(F)F)c2C(F)(F)F)=NO1 | 89 to 90
54 | NC(=NC(=O)c1nc(Cl)c(N)nc1N)NCCCCCCCCCCCC(=O)Nc1ncc[nH]1 | 102 to 104
55 | CC(C)(C)OC(=O)N[C@H](c1ccc(Cl)cc1)[C@H](c1ccc(Cl)cc1)[N+](=O)[O-] | 172 to 174
56 | O=C(NC1CCCCC1)N(C(=O)c1ccccc1[N+](=O)[O-])C1CCCCC1 | 134
57 | CC(C)(C)c1ccc(C(=O)Nc2cn3nc(N)ccc3n2)cc1 | 267 to 268
58 | COc1cncnc1N1CCN(CCCc2c[nH]c3ccc(CN(C)S(C)(=O)=O)cc23)CC1 | 164 to 165
59 | Clc1ccc(C2Nc3ccccc3S2)cc1 (stereo unspecified) | 85 to 87
60 | O=C(NC(CO)CO)OCc1ccccc1 | 104 to 106
61 | Cc1ccc(S(=O)(=O)NCc2ccccc2CC(=O)O)cc1 | 155 to 156
62 | Cc1ccc2ccccc2c1N(C(=O)CCl)C1COC(=O)C1 (stereo unspecified) | 121 to 122
63 | CCN(CC)CCNC(=O)c1ccc2cncc(I)c2n1 | 44 to 46
64 | COCc1c(C#CBr)ncc2[nH]c3cccc(OCc4ccccc4)c3c12 | 160
65 | COc1ccc2c(CCNCC#N)c[nH]c2c1 | 80
66 | CC(C)(C)c1nc(C(=O)O)c(Cl)c(N)c1F | 149 to 151
67 | Cc1nccn1CC#CCN1CCCC1=O | 81 to 85
68 | CC(C)NCC(O)COc1cccc(Cl)c1Cl (stereo unspecified) | 94 to 96
69 | O=C(Nc1ccccc1C(F)(F)F)C1CCCCC1 | 153 to 154
70 | COc1ccc(C2CC(=O)CCC2[N+](=O)[O-])cc1OC (stereo unspecified) | 147 to 148
71 | Cc1cc(-c2sc(N3CCN(CC4CC4)C3=O)nc2C)n[nH]1 | 231 to 233
72 | Cn1nc(-c2cc(C=C(Cl)C(=O)O)c(Cl)cc2F)c(Cl)c1C(F)(F)F | 195 to 196
73 | CC(C)Cn1c(CNC(=O)OC(C)(C)C)c(-c2ccc(Cl)cc2)c2cc(C(=O)O)ccc2c1=O | 226 to 227
74 | CNc1ccc(/C=C/c2c(F)cccc2Cl)cc1 | 43 to 45
75 | Cc1c(-c2ccccc2)oc2c(NC(=O)C(F)(F)F)cccc2c1=O | 175 to 176
76 | Cc1noc(C(C)c2ccc(-c3ccccc3)c(F)c2)n1 (stereo unspecified) | 55 to 56
77 | CCOc1ccc2c(c1)C(C)(c1cc(C(=O)N3CC4CCN(C)C4C3)ccc1Cl)C(=O)N2S(=O)(=O)c1ccc(C(=O)NC(C)(C)C)cc1OC (stereo unspecified) | 130
78 | CC(C)Cc1cccc(CCCn2c(=O)c3c(N4CCN(C)CC4)cc(Cl)cc3n(Cc3ccccc3)c2=O)c1 | 56 to 62

Row | Compound | melting point [°C]
79 | CN(C)C(=O)Nc1ccc(Br)cc1 | 168 to 170
80 | CN(C)CCNC(=O)Nc1ccccc1 | 141 to 142
81 | CC(=O)Oc1ccc(C2=CC(C)(C)c3ccccc3O2)cc1 | 84 to 86
82 | CCOC(=O)C=Cc1cccc([N+](=O)[O-])c1C | 53 to 55
83 | CC(=O)OCc1ccc(-c2ccc(COC(C)=O)cc2)cc1 | 86 to 87
84 | CC(=Nc1c(C)cccc1C)C(C)=Nc1c(C)cccc1C | 78 to 86
85 | CCCn1c(=O)c2c(nc(/C=C/c3ccc(OC(C)=O)c(OC(C)=O)c3)n2C)n(CCC)c1=O | 229 to 230
86 | COc1ccc(CNc2cc(OC)c(Cl)cc2OC)cc1 | 53 to 63
87 | Fc1nccc(I)c1CCCCl | 24 to 25
88 | CCCCc1nc(CO)c(Br)[nH]1 | 160
89 | CCOC(=O)c1[nH]nc(-c2ccc(C#N)cc2)c1C | 148
90 | C=CC1(CO)OC(OC2C(COCc3ccccc3)OC(OC)C(OCc3ccccc3)C2OCc2ccccc2)C(OC(C)=O)C(OC)C1O (stereo unspecified) | 53
91 | COc1ccccc1C(=CC#N)c1ccccc1OC | 99 to 100
92 | O=C1CC2Cc3ccccc3N2CCN1 (stereo unspecified) | 186 to 188
93 | O=C(CCCCCCCNC(=O)OCc1ccccc1)Nc1cccc(C(=O)O)c1 | 167 to 168
94 | CC(=O)Nc1ccc(C#Cc2ccc(N3CC4CCC(C3)N4C)nn2)cc1 | 292
95 | CC1Cn2c(nc3ccccc32)NC1=O (stereo unspecified) | > 260
96 | Clc1cccc2c1C1(CO1)c1ccccc1C21CO1 (stereo unspecified) | 85 to 92
97 | CCCc1[nH]c2ccc(OC)cc2c1/C=C/C(=O)c1ccncc1 | 221 to 224
98 | CCOc1ccc(C(=O)COC(C)=O)cc1 | 81 to 82
99 | O=C1Nc2sccc2C(=O)N2CC[C@@H]12 | 272 to 274
100 | CN(C)CC(=O)N1c2cc(Cl)ccc2N(C)S(=O)(=O)c2ccccc21 | 175 to 176
101 | CCCCCCC(C(=O)OCC)n1c(C(F)(F)C(F)(F)F)nc2cc(-c3ccccc3-c3nn[nH]n3)ccc21 (stereo unspecified) | 70 to 72
